Measurements published in US10618903B2, “Heteroaryl substituted aminopyridine compounds” (BRISTOL-MYERS SQUIBB COMPANY, priority 2015, dated 2020).

What was measured:
IRAK4 = IRAK4 (Homo sapiens (Human), UniProt Q9NWZ3); assay: IRAK4 Inhibition Assay; format: biochemical; conditions: ATP 500 μM; IRAK4 0.6 nM
How it was run: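 Readout: electrophoretic (LabChip) separation of fluorescent peptide substrate from phosphorylated product after EDTA quench. Reactions ran 60 min at room temperature with 0.6 nM IRAK4, 1.5 μM peptide and 500 μM ATP; inhibition referenced to no-enzyme (100%) and vehicle (0%) controls.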

Caco Permeability Assay = format: in vitro ADME; conditions: human, Caco-2, Caco-2 cells, 3 μM compound
[1] = test system: IL-6 levels in human whole blood stimulated with a TLR2 agonist; assay: IRAK4 Whole Blood Assay (lipoteichoic acid/TLR2-stimulated IL-6); format: cell-based; conditions: Homo sapiens, lipoteichoic acid 10 μg/mL, IL-6 readout
How it was run: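 IL-6 was quantified by cytometric bead assay in supernatants of human blood (ACD-A) stimulated for 5 h with lipoteichoic acid at 10 μg/mL final. Compound exposure preceded stimulation for 60 min at 37 °C, 5% CO2.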

Sequence of IRAK4 (Q9NWZ3 whole entry): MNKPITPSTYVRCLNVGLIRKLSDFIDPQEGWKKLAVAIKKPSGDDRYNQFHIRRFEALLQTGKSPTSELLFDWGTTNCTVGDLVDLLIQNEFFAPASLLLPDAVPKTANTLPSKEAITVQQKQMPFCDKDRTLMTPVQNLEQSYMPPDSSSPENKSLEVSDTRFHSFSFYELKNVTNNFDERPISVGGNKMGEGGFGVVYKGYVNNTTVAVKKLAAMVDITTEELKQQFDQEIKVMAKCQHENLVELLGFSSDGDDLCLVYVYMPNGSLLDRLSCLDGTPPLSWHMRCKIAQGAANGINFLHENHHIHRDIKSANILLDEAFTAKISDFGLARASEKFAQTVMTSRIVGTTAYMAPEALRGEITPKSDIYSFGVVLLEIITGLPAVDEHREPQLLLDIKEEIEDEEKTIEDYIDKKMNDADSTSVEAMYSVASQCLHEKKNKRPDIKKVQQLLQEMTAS

Structure (SMILES) | IC50 (IRAK4) [nM] | Papp at 2 h, 3 µM (Caco Permeability Assay) [×10⁻⁶ cm/s] | EC50 [1] [nM]
CC(C)Cn1cc(Nc2cc(-c3cnn4cc(Cl)cnc34)ncc2C(=O)NC[C@@H](F)C(C)(C)O)cn1 [Example 247, (R)-6-(6-chloropyrazolo[1,5-a]pyrimidin-3-yl)-N-(2-fluoro-3-hydroxy-3-methylbutyl)-4-((1-isobutyl-1H-pyrazol-4-yl)amino)nicotinamide] | 2 | 8.1 | 360
CC(C)(O)[C@H](F)CNC(=O)c1cnc(-c2cnn3cc(C#N)cnc23)cc1Nc1cnn(C2CC2)c1 [Example 248, (R)-6-(6-cyanopyrazolo[1,5-a]pyrimidin-3-yl)-4-((1-cyclopropyl-1H-pyrazol-4-yl)amino)-N-(2-fluoro-3-hydroxy-3-methylbutyl)nicotinamide] | 2 | < 1.5 | 370
CC(C)(O)[C@H](F)CNC(=O)c1cnc(-c2cnn3cc(C#N)cnc23)cc1Nc1cnn(CC2CC2)c1 [Example 249, (R)-6-(6-cyanopyrazolo[1,5-a]pyrimidin-3-yl)-4-((1-(cyclopropylmethyl)-1H-pyrazol-4-yl)amino)-N-(2-fluoro-3-hydroxy-3-methylbutyl)nicotinamide] | 2 | < 1.5 | 400
CC(C)(O)[C@H](F)CNC(=O)c1cnc(-c2cnn3cc(Cl)cnc23)cc1Nc1cnn(C2CCC2)c1 [Example 250, (R)-6-(6-chloropyrazolo[1,5-a]pyrimidin-3-yl)-4-((1-cyclobutyl-1H-pyrazol-4-yl)amino)-N-(2-fluoro-3-hydroxy-3-methylbutyl)nicotinamide] | 1 | 6.6 | 200
CC(C)(O)[C@H](F)CNC(=O)c1cnc(-c2cnn3cc(Cl)cnc23)cc1Nc1cnn(CC2CC2)c1 [Example 251, (R)-6-(6-chloropyrazolo[1,5-a]pyrimidin-3-yl)-4-((1-(cyclopropylmethyl)-1H-pyrazol-4-yl)amino)-N-(2-fluoro-3-hydroxy-3-methylbutyl)nicotinamide] | 1 | 7.6 | 410
CC(C)(O)CCNC(=O)c1cnc(-c2cnn3cc(Cl)cnc23)cc1Nc1cnn(CC(F)F)c1 [Example 253, 6-(6-chloropyrazolo[1,5-a]pyrimidin-3-yl)-4-((1-(2,2-difluoroethyl)-1H-pyrazol-4-yl)amino)-N-(3-hydroxy-3-methylbutyl)nicotinamide] | 1 | 4.8 | 160
CC(C)(F)[C@H](F)CNC(=O)c1cnc(-c2cnc3cc(C#N)cnn23)cc1Nc1cnn(CC(F)F)c1 [Example 258, (R)-6-(7-cyanoimidazo[1,2-b]pyridazin-3-yl)-N-(2,3-difluoro-3-methylbutyl)-4-((1-(2,2-difluoroethyl)-1H-pyrazol-4-yl)amino)nicotinamide] | 2 | 5.9 | 180
CC(C)(O)[C@H](F)CNC(=O)c1cnc(-c2cnc3cc(C#N)cnn23)cc1Nc1cnn(C2CC(F)(F)C2)c1 [Example 259, (R)-6-(7-cyanoimidazo[1,2-b]pyridazin-3-yl)-4-((1-(3,3-difluorocyclobutyl)-1H-pyrazol-4-yl)amino)-N-(2-fluoro-3-hydroxy-3-methylbutyl)nicotinamide] | 2 | < 1.5 | 130
CC(C)(O)[C@H](F)CNC(=O)c1cnc(-c2cnc3cc(C#N)cnn23)cc1Nc1cnn(CC(F)F)c1 [Example 260, (R)-6-(7-cyanoimidazo[1,2-b]pyridazin-3-yl)-4-((1-(2,2-difluoroethyl)-1H-pyrazol-4-yl)amino)-N-(2-fluoro-3-hydroxy-3-methylbutyl) nicotinamide] | 3 | < 1.5 | 80
CC(C)(O)[C@H](F)CNC(=O)c1cnc(-c2cnc3cc(Cl)cnn23)cc1Nc1cnn(CC(F)F)c1 [Example 262, (R)-6-(7-chloroimidazo[1,2-b]pyridazin-3-yl)-4-((1-(2,2-difluoroethyl)-1H-pyrazol-4-yl)amino)-N-(2-fluoro-3-hydroxy-3-methylbutyl)nicotinamide] | 1 | 2.6 | 520
